Data as given in the supplement of paper PMC10627819.

How the values were obtained:
S. aureus Newman [1] = test: fitness (endpoint OD595 vs no drug) (fraction); higher = more growth
Summary of the method: (§1)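 Each well of a 384-well plate received 30 µl of culture at OD595 0.01, or 55 µl for S. pneumoniae. TSB, LB Lennox or CY served as media at 37 °C. OD595 was taken every 30 min for 14 h and corrected by subtracting the first reading. Fitness is the optical density at stationary-phase entry divided by the robust mean of no-drug controls, capped at 1.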

S. pneumoniae D39V [2] = test: as above
Summary of the method: as §1

B. subtilis 168 [3] = test: as above
Summary of the method: as §1

S. aureus DSM 20231 = test: Bliss interaction score (quartile over a dose matrix) (fitness difference); higher = more antagonism (negative = synergy)
Summary of the method: (§2)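 Quartiles summarise the Bliss score over technical, biological and donor/recipient replicates, where the score is observed minus expected fitness under a product model. Expected fitness uses single-drug values inferred from combination data. Fitness is OD595 at entry into stationary phase over the plate's robust no-drug mean, capped at 1.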

S. aureus Newman [4] = test: as above
Summary of the method: as §2

S. pneumoniae D39V [5] = test: as above
Summary of the method: as §2

B. subtilis 168 [6] = test: as above
Summary of the method: as §2
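Wherever Bliss interaction score (quartile over a dose matrix) is given: first quartile when negative (synergy) and third quartile when positive (antagonism).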

CNC(C)C1CCC(N)C(OC2C(N)CC(N)C(OC3OCC(C)(O)C(NC)C3O)C2O)O1 (stereo not given) [Gentamicin] + C[n+]1ccc(-c2cc[n+](C)cc2)cc1 [Paraquat]
fitness, S. aureus Newman [1], one replicate, main component drawn
Settings | first compound 0.375 µg/mL | first compound 0.75 µg/mL | first compound 1.5 µg/mL
partner 1.25 µg/mL | 0.919 | 0.918 | 0.949
partner 2.5 µg/mL | 0.951 | 0.937 | 0.98
partner 5 µg/mL | 0.952 | 0.9 | 0.976

main component drawn
Settings | fitness
B. subtilis 168 [3], first compound 0.0625 µg/mL, partner 1.25 µg/mL | 0.865
B. subtilis 168 [3], first compound 0.0625 µg/mL, partner 2.5 µg/mL | 0.864
B. subtilis 168 [3], first compound 0.25 µg/mL, partner 1.25 µg/mL | 0.203
B. subtilis 168 [3], first compound 0.25 µg/mL, partner 2.5 µg/mL | 0.0485
B. subtilis 168 [3], first compound 0.25 µg/mL, partner 5 µg/mL | 0.0561
S. aureus Newman [1], first compound 0.5 µg/mL, partner 1.25 µg/mL | 0.957
S. aureus Newman [1], first compound 0.5 µg/mL, partner 2.5 µg/mL | 0.953
S. aureus Newman [1], first compound 0.5 µg/mL, partner 5 µg/mL | 0.928
S. aureus Newman [1], first compound 1 µg/mL, partner 1.25 µg/mL | 0.981
S. aureus Newman [1], first compound 1 µg/mL, partner 2.5 µg/mL | ≥ 1
S. aureus Newman [1], first compound 1 µg/mL, partner 5 µg/mL | 0.992
S. aureus Newman [1], first compound 2 µg/mL, partner 1.25 µg/mL | ≥ 1
S. aureus Newman [1], first compound 2 µg/mL, partner 2.5 µg/mL | ≥ 1
S. aureus Newman [1], first compound 2 µg/mL, partner 5 µg/mL | 0.963
S. pneumoniae D39V [2], first compound 2 µg/mL, partner 1.5 µg/mL | 0.982
S. pneumoniae D39V [2], first compound 2 µg/mL, partner 3 µg/mL | 0.99
S. pneumoniae D39V [2], first compound 2 µg/mL, partner 6 µg/mL | 0.931
S. pneumoniae D39V [2], first compound 4 µg/mL, partner 1.5 µg/mL | ≥ 1
S. pneumoniae D39V [2], first compound 4 µg/mL, partner 3 µg/mL | 0.971
S. pneumoniae D39V [2], first compound 4 µg/mL, partner 6 µg/mL | 0.932
S. pneumoniae D39V [2], first compound 8 µg/mL, partner 1.5 µg/mL | 0.993
S. pneumoniae D39V [2], first compound 8 µg/mL, partner 3 µg/mL | 0.902
S. pneumoniae D39V [2], first compound 8 µg/mL, partner 6 µg/mL | 0.935

main component drawn
Settings | Bliss interaction score
B. subtilis 168 [6] | -0.0978
S. aureus DSM 20231 | 0.109
S. aureus Newman [4] | 0.0489
S. pneumoniae D39V [5] | 0.0553

CC1=C(C(=O)O)N2C(=O)[C@@H](NC(=O)[C@H](N)c3ccccc3)[C@H]2SC1 [Cephalexin] + CN(C)c1cc(NC(=O)CNC(C)(C)C)c(O)c2c1C[C@H]1C[C@H]3[C@H](N(C)C)C(O)=C(C(N)=O)C(=O)[C@@]3(O)C(O)=C1C2=O [Tigecycline]
fitness
Settings | first compound 0.125 µg/mL | first compound 0.25 µg/mL | first compound 0.5 µg/mL | first compound 1 µg/mL | first compound 2 µg/mL | first compound 4 µg/mL
B. subtilis 168 [3], partner 0.039 µg/mL | 0.958 | 0.946 | 0.942 | – | – | –
B. subtilis 168 [3], partner 0.078 µg/mL | 0.903 | 0.902 | 0.942 | – | – | –
B. subtilis 168 [3], partner 0.156 µg/mL | 0.951 | 0.892 | 0.943 | – | – | –
S. aureus Newman [1], partner 0.039 µg/mL | – | 0.974 | 0.992 | ≥ 1 | – | –
S. aureus Newman [1], partner 0.078 µg/mL | – | 0.998 | ≥ 1 | ≥ 1 | – | –
S. aureus Newman [1], partner 0.156 µg/mL | – | 0.97 | 0.994 | ≥ 1 | – | –
S. pneumoniae D39V [2], partner 0.65 µg/mL | – | – | – | 0.514 | 0.0102 | 0.0229
S. pneumoniae D39V [2], partner 1.3 µg/mL | – | – | – | 0.616 | 0.0542 | 0.0691
S. pneumoniae D39V [2], partner 2.6 µg/mL | – | – | – | 0.616 | 0.0292 | 0.0457

fitness, one replicate
Settings | first compound 0.125 µg/mL | first compound 0.25 µg/mL | first compound 0.5 µg/mL | first compound 1 µg/mL
B. subtilis 168 [3], partner 0.125 µg/mL | – | 0.94 | ≥ 1 | 0.995
B. subtilis 168 [3], partner 0.25 µg/mL | – | 0.952 | 0.976 | 0.975
B. subtilis 168 [3], partner 0.5 µg/mL | – | 0.958 | ≥ 1 | 0.916
S. pneumoniae D39V [2], partner 0.65 µg/mL | 0.933 | 0.959 | ≥ 1 | –
S. pneumoniae D39V [2], partner 1.3 µg/mL | 0.964 | 0.974 | ≥ 1 | –
S. pneumoniae D39V [2], partner 2.6 µg/mL | 0.888 | 0.915 | 0.978 | –

Settings | Bliss interaction score
B. subtilis 168 [6] | -0.0606
S. aureus DSM 20231 | 0.0805
S. aureus Newman [4] | 0.0193
S. pneumoniae D39V [5] | -0.0787
